Reference: patent publication US20110028509A1, “Sulfonamides” (MERCK SERONO SA, priority 2008, published 2011)

Columns and labels:
CXCR3 [1] = target: T1, CXCR3 (Homo sapiens, UniProt P49682); assay: CXCR3 Ca2+ mobilization (FLIPR), stable hCXCR3-CHO cell line, I-TAC stimulated; type: cell-based; parameters: host or cells: CHO cells stably expressing hCXCR3; details: hCXCR3-CHO cells, I-TAC 100 nM stimulated Ca2+ response; read-out: Ca-ITAC
T1 sequence (P49682 1-368): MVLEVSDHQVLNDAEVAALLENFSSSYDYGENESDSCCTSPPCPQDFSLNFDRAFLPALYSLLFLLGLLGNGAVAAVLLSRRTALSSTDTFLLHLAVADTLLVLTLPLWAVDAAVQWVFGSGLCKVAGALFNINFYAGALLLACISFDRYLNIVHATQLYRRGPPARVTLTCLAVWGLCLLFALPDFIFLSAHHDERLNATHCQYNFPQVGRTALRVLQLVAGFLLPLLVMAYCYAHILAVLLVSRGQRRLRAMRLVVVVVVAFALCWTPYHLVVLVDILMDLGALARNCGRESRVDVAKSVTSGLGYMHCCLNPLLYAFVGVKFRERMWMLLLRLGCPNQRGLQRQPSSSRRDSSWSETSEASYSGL
Description: Human chinese hamster ovary (CHO) cell line stably expressing hCXCR3 was purchased from Euroscreen (Belgium) and culture in HAM's F12 (Invitrogen) containing 10% heat inactivated fetal calf serum (Cancerra, Australia), 50 units ml−1 penicillin, 50 μml−1 streptomycin, (Invitrogen, USA) and 400 μg/ml geneticin (G418) (Calbiochem, San Diego), according to the manufacturer.
CXCR3Ca^2+ mobilization was measured using a stable hCXCR3—CHO cell line and a microtiter-plate based assay using FLIPR^TETRA™ (Molecular Devices). In more detail, cells were harvested and plated into black 384-well plates (Becton-Dickinson) at a density of 15 000 cells per well and grown in the incubator for 18 hours. On the next day the media was aspirated and replaced with the cell loading buffer (HBSS—(Invitrogen) based buffer containing calcium indicator and signal enhancer from a commercial Ca2+ assay kit (Becton Dickinson). The plates were incubated for 60 minutes in the incubator, the test compounds were added and the plates equilibrated for 20 minutes at room temperature.
Plates were placed into FLIPR and the CXCR3 agonist (I-TAC, 100 nM) stimulated fluorescence change was quantitated. The activity of CXCR3 antagonists was determined as percent of the CXCR3 ligand I-TAC in the absence of the test compounds (=100% activity).

CXCR3 [2] = target: T1, CXCR3; assay: Chemotaxis assay ITAC (CXCL11), L1.2-CXCR3 cells; type: cell-based; parameters: expressed in transfected cells; details: 1 nM CXCL11 (I-TAC), 4 hours
Description: Human CXCR3 cDNA was amplified by PCR from a human cells cDNA library (Clontech) and subcloned into pcDNA3.1 (Invitrogen). Murine pre-B L1.2 cells were transfected with hCXCR3-pcDNA3.1 and were grown at 37° C., 5% CO2 in RPMI 1640 medium (Invitrogen, USA) supplemented with 5% heat inactivated fetal calf serum (Cancerra, Australia), 2 mM glutamine (Invitrogen), 50 units ml−1 penicillin, 50 μml−1 streptomycin. Stable transfectant clonal populations were selected using 800 μg/ml geneticin.
L1.2-CXCR3 cells were grown for 24 hours at 0.5×10^6 cells/ml in chemotaxis medium containing 5 mM butyric acid (Sigma). Compounds were on one hand mixed with 1 nM of CXCL11 (I-TAC) in phenol-red free RPMI 1640 (invitrogen) supplemented with 5% fetal bovine serum in presence of 1% DMSO. The CXCL11/compounds mixture was then added to lower chambers of chemotaxis 96 well microplates (neuroprobe), and framed filters ([…] pore size) were put on top of the lower chambers. Compounds were on the other hand mixed with L1.2 CXCR3 cells and incubated in chemotaxis medium at 1.5×10^6 cells/ml in presence of 1% DMSO at 37° C., 5% CO2 for 30 minutes. Cells/compounds mixture was then added on top of the frame filters and migration was performed at 37° C., 5% CO2 for 4 hours. The number of migrated cells in the bottom chamber was determined using the CyQuant GR dye (Molecular Probe), according to the manufacturer.

Row | SMILES | IC50 (CXCR3 [1]) [nM] | IC50 (CXCR3 [2]) [nM]
1 | O=C(Nc1ccc(CN(Cc2ccccn2)S(=O)(=O)c2ccc(Cl)cc2)cc1)C(O)c1ccccc1 (stereo not drawn) [Example 170] | 400 | 50
2 | CCOc1ccc(S(=O)(=O)N(Cc2ccc(C(=O)N[C@H]3[C@@H]4CN(C(=O)OC(C)(C)C)C[C@@H]43)cc2)Cc2cccnc2)cc1 [Example 94] | 2000 | 260
3 | C[C@@H](c1ccc(NC(=O)C2(c3ccccc3)CC2)cc1)N(Cc1ccccn1)S(=O)(=O)c1ccc(Cl)cc1 [Example 164] |  | 4270
4 | C[C@@H](c1ccc(NC(=O)C2(c3ccccc3)CC2)cc1)N(Cc1ccccn1)S(=O)(=O)c1ccc(C#N)cc1 [Example 167] | 250 | 1960
5 | N#Cc1ccc(S(=O)(=O)N(Cc2ccc(C(=O)NC(CO)C(O)c3ccccc3)cc2)Cc2cccnc2)cc1 (stereo not drawn) [Example 114] | 2000 | 2500
6 | O=C(NCC1CC1)c1ccc(CN(Cc2cccc[n+]2[O-])S(=O)(=O)c2ccc(Cl)cc2)cc1 [Example 134, 4-{[(4-Chloro-benzenesulfonyl)-(1-oxy-pyridin-2-ylmethyl)-amino]-methyl}-N-cyclopropylmethyl-benzamide] |  | 2980
7 | O=C(O)c1ccc(CNC(=O)c2ccc(CN(Cc3ccccn3)S(=O)(=O)c3ccc(Cl)cc3)cc2)cc1 [Example 133] | 2000 | 
8 | Cc1cccc(S(=O)(=O)N(Cc2ccc(C#N)cc2)Cc2ccccn2)c1 [Example 175] | 3500 | 
9 | CCOc1ccc(C2(NC(=O)c3ccc(CN(Cc4ccccn4)S(=O)(=O)c4ccc(C#N)cc4)cc3)CC2)cc1 [Example 129] | 2500 | 
10 | O=S(=O)(c1ccc(Cl)cc1)N(CCCc1ccccc1)Cc1ccc(-c2nnn[nH]2)cc1 [Example 221] | 1700 | 
11 | COC(C(=O)Nc1ccc(CN(Cc2ccccn2)S(=O)(=O)c2ccc(Cl)cc2)cc1)c1ccccc1 (stereo not drawn) [Example 182] | 40 | 
12 | O=C(N[C@H](Cc1ccccc1)C(=O)O)c1ccc(CN(Cc2ccccn2)S(=O)(=O)c2ccc(Cl)cc2)cc1 [Example 153] | 2000 | 
13 | N#Cc1ccc(S(=O)(=O)N(Cc2ccccn2)C2(c3ccc(C(=O)NC4(c5ccccc5)CC4)cc3)CC2)cc1 [Example 176] |  | 4450
14 | O=C(Nc1ccc(CN(Cc2ccccn2)S(=O)(=O)c2ccc(Cl)cc2)cc1)C(O)c1cccc(Cl)c1 (stereo not drawn) [Example 184] | 1000 | 
15 | COc1ccc(CN(Cc2ccc(C(=O)NCc3ccccc3)cc2)S(=O)(=O)c2ccc(Cl)cc2)cc1 [Example 35, 4-{[(4-Chloro-benzenesulfonyl)-(4-methoxybenzyl)-amino]-methyl}-N-phenyl methyl benzamide] | 6000 | 
16 | O=C(NC1(c2ccccc2)CC1)c1ccc(CN(Cc2ccccn2)S(=O)(=O)c2ccc(Cl)c(Cl)c2)cc1 [Example 46] | 705 | 

Row | SMILES | IC50 (CXCR3 [1]) [nM] | IC50 (CXCR3 [2]) [nM]
17 | O=S(=O)(c1ccc(Cl)cc1)N(Cc1ccc(-c2nnn[nH]2)cc1)Cc1ccccc1Oc1ccc(F)cc1 [Example 104] | 1000 | 
18 | CCOc1ccc(S(=O)(=O)N(Cc2ccc(C(=O)N[C@H]3[C@@H]4CN(C(C)=O)C[C@@H]43)cc2)Cc2cccnc2)cc1 [Example 108] | 1800 | 
19 | O=C(NC1(c2ccccc2)CC1)c1ccc(CN(Cc2cnccn2)S(=O)(=O)c2ccc(Cl)cc2)cc1 [Example 187] | 4000 | 
20 | N#Cc1ccc(S(=O)(=O)N(Cc2ccc(C(=O)NC3(c4cccc(C#N)c4)CC3)cc2)Cc2cccnc2)cc1 [Example 111] | 1500 | 
21 | COc1cccc(S(=O)(=O)N(Cc2ccc(C#N)cc2)Cc2ccccn2)c1 [Example 178] | 2000 | 
22 | CCOC(=O)c1ccc(CN(Cc2cccnc2)S(=O)(=O)c2ccc(OCC)cc2)cc1 [Example 155] | 2000 | 
23 | Cc1ccc(S(=O)(=O)N(Cc2ccc(-c3nnn[nH]3)cc2)Cc2ccccn2)cc1 [Example 139] | 2000 | 
24 | CC(C)(C)OC(=O)N[C@@H](C(=O)Nc1ccc(CN(Cc2ccccn2)S(=O)(=O)c2ccc(Cl)cc2)cc1)c1ccccc1 [Example 180] | 1000 | 
25 | CCOC(=O)c1ccc(CN(Cc2cccnc2)S(=O)(=O)c2ccc(Cl)cc2)cc1 [Example 159] | 4000 | 
26 | COc1cccc(CN(Cc2ccc(C(=O)NCc3ccccc3)cc2)S(=O)(=O)c2ccc(Cl)cc2)c1 [Example 38, 4-{[(4-Chloro-benzenesulfonyl)-(3-methoxybenzyl)-amino]-methyl}-N-phenyl methyl benzamide] | 10000 | 
27 | O=C(NCC1CC1)c1ccc(CN(Cc2ccccn2)S(=O)(=O)c2ccc(Cl)c(Cl)c2)cc1 [Example 45] | 13000 | 
28 | O=S(=O)(c1ccc(Cl)cc1)N(Cc1ccc(-c2nnn[nH]2)cc1)Cc1cc(Cl)ccc1F [Example 61, 4-chloro-N-(5-chloro-2-fluorobenzyl)-N-[4-(2H-tetrazol-5-yl)benzyl]benzene sulfonamide] | 200 | 
29 | C[C@H](c1ccc(NC(=O)C2(c3ccccc3)CC2)cc1)N(Cc1ccccn1)S(=O)(=O)c1ccc(Cl)cc1 [Example 168] | 3330 | 
30 | CCOC(=O)C1(NC(=O)c2ccc(CN(Cc3ccccn3)S(=O)(=O)c3ccc(C#N)cc3)cc2)CC1 [Example 144] | 140 | 
31 | O=S(=O)(c1ccc(OC(F)(F)F)cc1)N(Cc1ccccc1)Cc1ccc(-c2nnn[nH]2)cc1 [Example 115] | 2000 | 

Results, then the compound that gave them:

Row | IC50 (CXCR3 [1]) [nM] | IC50 (CXCR3 [2]) [nM] | SMILES
32 | 5000 |  | CC(c1cccc(-c2nnn[nH]2)c1)N(Cc1ccccc1)S(=O)(=O)c1ccc(Cl)cc1 (stereo not drawn) [Example 271]
33 | 1500 |  | CC(CCc1ccccc1)N(Cc1ccc(-c2nnn[nH]2)cc1)S(=O)(=O)c1ccc(Cl)cc1 (stereo not drawn) [Example 224]
34 | 1500 |  | O=S(=O)(c1ccc(Cl)cc1)N(Cc1ccccc1)Cc1cccc(-c2nnn[nH]2)c1 [Example 234]
35 | 20000 |  | O=C(O)c1ccc(CN(Cc2cnccn2)S(=O)(=O)c2ccc(Cl)cc2)cc1 [Example 319]
36 | 18000 |  | COC(=O)C(Cc1ccc(O)cc1)NC(=O)c1ccc(CN(Cc2ccccn2)S(=O)(=O)c2ccc(Cl)cc2)cc1 (stereo not drawn) [Example 345]
37 | 7500 |  | CCOc1ccc(S(=O)(=O)N(Cc2ccc(C(=O)NC3(c4ccc(OC(F)(F)F)cc4)CC3)cc2)Cc2ccccn2)cc1 [Example 283]
38 | 20000 |  | O=S(=O)(c1ccc(Cl)cc1)N(Cc1ccc(-c2nnn[nH]2)cc1)Cc1ccccc1-n1cccn1 [Example 280]
39 | 6000 |  | O=C(NC(Cc1ccc(O)cc1)C(=O)O)c1ccc(CN(Cc2ccccn2)S(=O)(=O)c2ccc(Cl)cc2)cc1 (stereo not drawn) [Example 354]
40 | 15000 |  | N#Cc1ccc(CN(Cc2ccccn2)S(=O)(=O)c2cccc(Cl)c2)cc1 [Example 313]
41 | 25000 |  | O=S(=O)(c1ccccc1Oc1ccccc1)N(Cc1ccc(-c2nnn[nH]2)cc1)Cc1ccccn1 [Example 237]
42 | 6000 |  | CCOc1ccc(S(=O)(=O)N(Cc2ccc(C(=O)OC)c(O)c2)Cc2ccccn2)cc1 [Example 353]
43 | 7000 |  | N#Cc1ccc(C(=O)N(Cc2ccccn2)S(=O)(=O)c2ccc(Cl)cc2)cc1 [Example 281, 4-Chloro-N-(4-cyano-benzoyl)-N-pyridin-2-ylmethyl-benzenesulfonamide]
44 | 5000 |  | CC(CN(Cc1ccc(-c2nnn[nH]2)cc1)S(=O)(=O)c1ccc(Cl)cc1)c1ccccc1 (stereo not drawn) [Example 227]
45 | 12000 |  | N#Cc1ccc(S(=O)(=O)N(Cc2ccc(NC(=O)Cc3nnn[nH]3)cc2)Cc2ccccn2)cc1 [Example 300]
46 | 13000 |  | COc1cc(OC)nc(CN(Cc2ccc(C(=O)O)cc2)S(=O)(=O)c2ccc(Cl)cc2)n1 [Example 328]
47 | 5500 |  | N#Cc1ccc(S(=O)(=O)N(Cc2ccc(C(=O)NC3(c4ccc(OC(F)(F)F)cc4)CC3)cc2)Cc2ccccn2)cc1 [Example 282]
